In ChEMBL document CHEMBL6127049, “Discovery of the selective and nanomolar inhibitor of DPP-4 more potent than sitagliptin by structure-guided rational design” (Eur J Med Chem, 2024):
pIC50: −log10 of the molar value. Active and inactive are the calls of the source. The rule behind the calls is not given here.

What was measured:
Rattus norvegicus [1] = species: Rattus norvegicus; assay: Anti-diabetic activity in STZ-induced type 2 diabetes male Wistar albino rat model assessed as fasting blood glucose level measured on day 28; format: functional
Rattus norvegicus [2] = species: Rattus norvegicus; assay: Anti-diabetic activity in STZ-induced type 2 diabetes male Wistar albino rat model assessed as fasting blood glucose level measured on day 1; format: functional
Dipeptidyl peptidase 4 = Dipeptidyl peptidase 4 (Homo sapiens, UniProt P27487); assay: Inhibition of DPP4 (unknown origin) assessed as hydrolysis rate using Gly-pro-p-nitroanilide as substrate measured after 20 mins incubation by fluorometric assay
Chain of Dipeptidyl peptidase 4 (P27487 whole entry): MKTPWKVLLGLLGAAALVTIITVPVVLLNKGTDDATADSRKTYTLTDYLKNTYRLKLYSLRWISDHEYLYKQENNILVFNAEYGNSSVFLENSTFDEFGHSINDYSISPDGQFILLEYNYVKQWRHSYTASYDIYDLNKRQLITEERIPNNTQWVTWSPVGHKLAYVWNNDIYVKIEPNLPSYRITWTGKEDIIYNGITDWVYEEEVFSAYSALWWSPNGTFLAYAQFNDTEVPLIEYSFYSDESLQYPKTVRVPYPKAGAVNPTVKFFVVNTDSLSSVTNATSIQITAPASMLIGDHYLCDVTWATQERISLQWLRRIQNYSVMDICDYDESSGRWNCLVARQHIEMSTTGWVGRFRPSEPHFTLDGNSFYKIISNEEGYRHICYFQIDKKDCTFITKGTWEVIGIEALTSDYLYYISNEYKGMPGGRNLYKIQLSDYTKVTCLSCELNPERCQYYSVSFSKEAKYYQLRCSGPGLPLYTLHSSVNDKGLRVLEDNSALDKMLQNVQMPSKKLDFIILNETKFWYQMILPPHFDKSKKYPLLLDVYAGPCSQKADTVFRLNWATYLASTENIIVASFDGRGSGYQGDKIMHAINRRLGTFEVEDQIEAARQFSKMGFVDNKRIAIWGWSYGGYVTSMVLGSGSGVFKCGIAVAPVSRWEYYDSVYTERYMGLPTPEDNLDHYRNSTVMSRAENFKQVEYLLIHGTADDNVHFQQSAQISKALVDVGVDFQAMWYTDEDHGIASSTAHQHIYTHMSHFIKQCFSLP

Rattus norvegicus [3] = assay: Anti-diabetic activity in normal Wistar rat model assessed as blood glucose level at 10 mg/kg, po followed by treated administered 3 mg/kg orally measured after 60 mins by Oral glucose tolerance test (reference value: 153.74 + /- 3.94 mg/dL); format: functional; settings: 1 h
Rattus norvegicus [4] = assay: Antihyperlipidemic effect in STZ-induced type 2 diabetes male Wistar albino rat model assessed as HDL level at 10 mg/kg, po measured after 4 weeks (reference value: 25.54 +/- 2.62 mg/dL); format: functional
Rattus norvegicus [5] = assay: Reduction of serum glutamate pyruvate transaminase (SGPT) level in STZ-induced type 2 diabetes male Wistar albino rat model at 20 mg/kg, po measured after 4 weeks by hepatic function test; format: functional, organism-based
Rattus norvegicus [6] = assay: Reduction of alkaline phosphatase (ALP) level in STZ-induced type 2 diabetes male Wistar albino rat model at 10 mg/kg, po measured after 4 weeks by hepatic function test; format: functional, organism-based
Rattus norvegicus [7] = assay: Antihyperlipidemic effect in STZ-induced type 2 diabetes male Wistar albino rat model assessed as LDL level at 10 mg/kg, po measured after 4 weeks (reference value: 184.65 +/- 4.57 mg/dL); format: functional
Rattus norvegicus [8] = assay: Reduction of serum glutamate oxaloacetate transaminase (SGOT) level in STZ-induced type 2 diabetes male Wistar albino rat model at 10 mg/kg, po measured after 4 weeks by hepatic function test; format: functional, organism-based
Rattus norvegicus [9] = assay: Anti-diabetic activity in normal Wistar rat model assessed as blood glucose level at 10 mg/kg, po followed by treated administered 3 mg/kg orally measured after 90 mins by Oral glucose tolerance test (reference value: 134.11 + /- 4.64 mg/dL); format: functional; settings: 1.5 h
Rattus norvegicus [10] = assay: Reduction of alkaline phosphatase (ALP) level in STZ-induced type 2 diabetes male Wistar albino rat model at 20 mg/kg, po measured after 4 weeks by hepatic function test; format: functional, organism-based
Rattus norvegicus [11] = assay: Anti-diabetic activity in normal Wistar rat model assessed as blood glucose level at 20 mg/kg, po followed by treated administered 3 mg/kg orally measured immediately after administration by Oral glucose tolerance test (reference value: 105.12 mg/dL); format: functional
Rattus norvegicus [12] = assay: Anti-diabetic activity in normal Wistar rat model assessed as blood glucose level at 10 mg/kg, po followed by treated administered 3 mg/kg orally measured after 30 mins by Oral glucose tolerance test (reference value: […] 176.14 + /- 4.04 mg/dL); format: functional; settings: 0.5 h
Rattus norvegicus [13] = assay: Anti-diabetic activity in normal Wistar rat model assessed as blood glucose level at 20 mg/kg, po followed by treated administered 3 mg/kg orally measured after 60 mins by Oral glucose tolerance test (reference value: 153.74 + /- 3.94 mg/dL); format: functional; settings: 1 h
Rattus norvegicus [14] = assay: Antihyperlipidemic effect in STZ-induced type 2 diabetes male Wistar albino rat model assessed as total cholesterol level at 10 mg/kg, po measured after 4 weeks (reference value: 227.04 +/- 4.10 mg/dL); format: functional
Rattus norvegicus [15] = assay: Anti-diabetic activity in normal Wistar rat model assessed as blood glucose level at 20 mg/kg, po followed by treated administered 3 mg/kg orally measured after 30 mins by Oral glucose tolerance test (reference value: 176.14 + /- 4.04 mg/dL); format: functional; settings: 0.5 h
Rattus norvegicus [16] = assay: Antihyperlipidemic effect in STZ-induced type 2 diabetes male Wistar albino rat model assessed as HDL level at 20 mg/kg, po measured after 4 weeks (reference value: 25.54 +/- 2.62 mg/dL); format: functional
Rattus norvegicus [17] = assay: Antihyperlipidemic effect in STZ-induced type 2 diabetes male Wistar albino rat model assessed as triglyceride level at 20 mg/kg, po measured after 4 weeks (reference value: 190.23 +/- 4.37 mg/dL); format: functional
Rattus norvegicus [18] = assay: Anti-diabetic activity in normal Wistar rat model assessed as blood glucose level at 10 mg/kg, po followed by treated administered 3 mg/kg orally measured after 120 mins by Oral glucose tolerance test (reference value: 126.5 + /- 3.90 mg/dL); format: functional; settings: 2 h
Rattus norvegicus [19] = assay: Reduction of serum glutamate pyruvate transaminase (SGPT) level in STZ-induced type 2 diabetes male Wistar albino rat model at 10 mg/kg, po measured after 4 weeks by hepatic function test; format: functional, organism-based
Rattus norvegicus [20] = assay: Reduction of serum glutamate oxaloacetate transaminase (SGOT) level in STZ-induced type 2 diabetes male Wistar albino rat model at 20 mg/kg, po measured after 4 weeks by hepatic function test; format: functional, organism-based
Rattus norvegicus [21] = assay: Antihyperlipidemic effect in STZ-induced type 2 diabetes male Wistar albino rat model assessed as triglyceride level at 10 mg/kg, po measured after 4 weeks (reference value: 190.23 +/- 4.37 mg/dL); format: functional
Rattus norvegicus [22] = assay: Antihyperlipidemic effect in STZ-induced type 2 diabetes male Wistar albino rat model assessed as LDL level at 20 mg/kg, po measured after 4 weeks (reference value: 184.65 +/- 4.57 mg/dL); format: functional
Rattus norvegicus [23] = assay: Anti-diabetic activity in normal Wistar rat model assessed as blood glucose level at 20 mg/kg, po followed by treated administered 3 mg/kg orally measured after 120 mins by Oral glucose tolerance test (reference value: 126.5 + /- 3.90 mg/dL); format: functional; settings: 2 h
Rattus norvegicus [24] = assay: Anti-diabetic activity in normal Wistar rat model assessed as blood glucose level at 10 mg/kg, po followed by treated administered 3 mg/kg orally measured immediately after administration by Oral glucose tolerance test (reference value: 105.12 mg/dL); format: functional
Rattus norvegicus [25] = assay: Antihyperlipidemic effect in STZ-induced type 2 diabetes male Wistar albino rat model assessed as total cholesterol level at 20 mg/kg, po measured after 4 weeks (reference value: 227.04 +/- 4.10 mg/dL); format: functional
Rattus norvegicus [26] = assay: Anti-diabetic activity in normal Wistar rat model assessed as blood glucose level at 20 mg/kg, po followed by treated administered 3 mg/kg orally measured after 90 mins by Oral glucose tolerance test (reference value: 134.11 + /- 4.64 mg/dL); format: functional; settings: 1.5 h

Q: For `CS(=O)(=O)n1cc2c(n1)CN([C@H]1CO[C@H](c3cc(F)ccc3F)[C@@H](N)C1)C2` [OMARIGLIPTIN], which Activity (Rattus norvegicus [1]) is on record?
A: 105 mg/dL

Q: What about the Activity (Rattus norvegicus [2]) of the same compound?
A: 293 mg/dL

Q: How did the pIC50 (Dipeptidyl peptidase 4) turn out when `Cc1nc(N2CCn3c(nnc3C(F)(F)F)C2)nc(C)c1CC(=O)O` was run?
A: 6.65

Q: With `CC1=C([N+](=O)[O-])C(c2ccc(F)c(F)c2)N=C(N)N1C(=O)CN1CCCC(N)C1` (stereo not given) as the compound, how does the pIC50 (Dipeptidyl peptidase 4) read?
A: 6.09

Q: `CC1=C(CC(=O)N2CCCC(N)C2)C(C)NC(=O)N1` (stereo not given) was tested. Which pIC50 (Dipeptidyl peptidase 4) did it give?
A: 5.92

Q: With `CC1=C(C(=O)O)C(c2ccc(F)c(F)c2)N=C(N)N1C(=O)CN1CCC[C@H]1C(=O)O` (stereo not given in full) as the compound, how does the pIC50 (Dipeptidyl peptidase 4) read?
A: 5.97

Q: Which results are given for `CC1=C(C(=O)O)C(c2ccc(F)c(F)c2)N=C(N)N1C(=O)CN1CCCC(N)C1` (stereo not given)?
A: Activity (Rattus norvegicus [3]): 108.35 mg/dL; Activity (Rattus norvegicus [4]): 48.23 mg/dL; Activity (Rattus norvegicus [5]): Active; Activity (Rattus norvegicus [6]): Active; Activity (Rattus norvegicus [7]): 123.32 mg/dL; pIC50 (Dipeptidyl peptidase 4): 7.05; Activity (Rattus norvegicus [8]): Active; Activity (Rattus norvegicus [9]): 107.57 mg/dL; Activity (Rattus norvegicus [10]): Active; Activity (Rattus norvegicus [11]): 101.44 mg/dL; Activity (Rattus norvegicus [12]): 118.62 mg/dL; Activity (Rattus norvegicus [13]): 118.96 mg/dL; Activity (Rattus norvegicus [14]): 148.09 mg/dL; Activity (Rattus norvegicus [15]): 115.15 mg/dL; Activity (Rattus norvegicus [16]): 56.98 mg/dL; Activity (Rattus norvegicus [17]): 114.65 mg/dL; Activity (Rattus norvegicus [18]): 106.76 mg/dL; Activity (Rattus norvegicus [19]): Active; Activity (Rattus norvegicus [20]): Active; Activity (Rattus norvegicus [21]): 143.78 mg/dL; Activity (Rattus norvegicus [22]): 107.12 mg/dL; Activity (Rattus norvegicus [23]): 110.72 mg/dL; Activity (Rattus norvegicus [24]): 103.07 mg/dL; Activity (Rattus norvegicus [25]): 134.45 mg/dL; Activity (Rattus norvegicus [26]): 114.84 mg/dL

Q: `CC1=C(C(=O)O)C(c2ccc(F)c(F)c2)N=C(N)N1C(=O)CN1CCCC1C#N` (stereo not given) was tested. Which pIC50 (Dipeptidyl peptidase 4) did it give?
A: 6.41

Q: With `Cc1nc(N2Cc3cn(S(C)(=O)=O)nc3C2)nc(C)c1CC(=O)O` as the compound, how does the pIC50 (Dipeptidyl peptidase 4) read?
A: 6.11

Q: How did the pIC50 (Dipeptidyl peptidase 4) turn out when `CC1=C(CC(=O)N2CCn3c(nnc3C(F)(F)F)C2)C(C)NC(=O)N1` (stereo not given) was run?
A: 5.59

Q: With `CC1=C(CC(=O)N2CCCC2C#N)C(c2ccc(F)c(F)c2)NC(=O)N1` (stereo not given) as the compound, how does the pIC50 (Dipeptidyl peptidase 4) read?
A: 6.58
